What was measured:
[1] = Tissue specific uptake of Evans Blue in thigh muscle with ACT (Example 2, Study 1); type: in vivo; conditions: for EB ratio of the left (treated) to right (untreated) thigh muscle, average±SD: 30 min after treatment; for increase in the uptake upon ACT treatment: US insonated tissue vs. untreated
Method: The tissue specific uptake of Evans Blue (EB, a fluorescent dye) has been investigated in a mouse model. Under physiologic conditions, the endothelium is impermeable to albumin, and Evans blue bound albumin remains confined within blood vessels. Thus, Evans blue is often used as a model compound in drug delivery studies [Bohmer et al., J Controlled Release, 148, Issue 1, 2010, pp. 18-24].
Female Balb/c nude mice were used. Before treatment, the mice were administered surgical anesthesia by subcutaneous injection of a mix of Fentanyl (0.05 mg/kg), Midazolam (5 mg/kg), and Medetomidine (0.5 mg/kg). An intravenous cannula (BD Neoflon™ 24 GA) was placed in the tail vein. Patency was verified by injection of a slight amount of 0.9% sodium chloride for injection after which a small amount of heparin (10 U/ml) was injection to prevent clotting. The hub of the cannula was filled with 0.9% sodium chloride for injection to eliminate any dead space and closed with a cap. The cannula was secured to the tail with surgical tape.
Evans Blue solution (50 mg EB/kg) was injected i.v. followed immediately by 2 ml/kg of the cluster dispersion as detailed in Example 1. Two groups where compared (N=3 for each group): 1) EB+cluster dispersion and 2) EB+cluster dispersion+Activation and Enhancement ultrasound insonation.
The left hind limb of the mouse was placed in a water bath with two US transducers poised for insonation of the left thigh. Ultrasound Activation insonation was provided by a VScan clinical ultrasound scanner (GE Healthcare) with a 2 MHz probe for 45 seconds (MI=0.8) starting from the injection time. This was immediately followed by the Enhancement step comprising 5 minutes 500 kHz ultrasound insonation (MI=0.2) using a single element transducer (Imasonic SAS). Thirty minutes after treatment the animals were sacrificed, tissue samples; thigh muscle from the treated (left) leg and thigh muscle from the contra lateral untreated leg, were harvested and Evans Blue content extracted and quantified. The concentration in the treated thigh muscle was divided by the concentration in the untreated thigh muscle for each animal (matched pair) to provide a dimensionless ratio of the increased uptake in the treated muscle. A one-way ANOVA was applied to the data.

[2] = tested on: methicillin susceptible strain of Staphylococcus aureus; experiment: Neutropenic staphylococcal thigh infection model, Levofloxacin with or without ACT (Example 3); type: in vivo; conditions: mice, dose-response study, read-out: ED50 (dose that induces a half maximal decline in bacterial density)
Source text: An established experimental model of staphylococcal thigh infection in a neutropenic thigh infection model was used and neutropenia will be induced with cyclophosphamide. The thigh infection model provides a sensitive experimental system for initial studies of antimicrobial efficacy in a mammalian system. This model is the most standardised for the evaluation of antimicrobial-microbial interactions combined with antimicrobial pharmacokinetics assessed in serum and tissues samples.
The challenge isolate was methicillin susceptible strain of Staphylococcus aureus is and both thighs were inoculated. Treatment was initiated 2 h after inoculation, thighs was harvested after 26 h and the bacterial density (colony forming units, CFU) in the excised tissue was determined. An initial dose finding study was performed to define the LEV ED50 (the dose that induces a half maximal decline in bacterial density). Within the study, LEV was be dosed intraperitoneal at 20 mg/kg.
The cluster composition investigated was as detailed in Example 1. […]
The bacterial density in the thighs harvested from the various groups was determined by growing a diluted sample of the excised tissue, homogenized in sterile PBS, on a plate with growth medium and counting the number of CFU.

[3] = tested on: T. saginata and Taenia solium (pork tapeworm) infection; conditions: in vivo; cited from earlier work

## Cc1cc(-c2ccc(/N=N/c3ccc4c(S(=O)(=O)O)cc(S(=O)(=O)O)c(N)c4c3O)c(C)c2)ccc1/N=N/c1ccc2c(S(=O)(=O)O)cc(S(=O)(=O)O)c(N)c2c1O [EB, Evans Blue]
[1]; EB 50 mg/kg i.v. + cluster dispersion 2 ml/kg + Activation and Enhancement US insonation
  EB ratio of the left (treated) to right (untreated) thigh muscle, average±SD: 2.0±0.3
[1]; EB 50 mg/kg i.v. + cluster dispersion 2 ml/kg, no US insonation
  EB ratio of the left (treated) to right (untreated) thigh muscle, average±SD: 1.1±0.2
[1]
  increase in the uptake upon ACT treatment: about 100%
[1]; listed as Evans Blue
  increase in the uptake upon ACT treatment: 100%

## C[C@H]1COc2c(N3CCN(C)CC3)c(F)cc3c(=O)c(C(=O)O)cn1c23 [LEV, Levofloxacin]
[2]
  ED50: ~24 mg/kg

## O=C(Nc1ccc([N+](=O)[O-])cc1Cl)c1cc(Cl)ccc1O [Niclosamide]
[3]
  cure rates: approximately 90%

From patent US20230211020A1, “TREATMENT OF INFECTIONS” (ACT Therapeutics Ltd, priority 2020, published 2023)
